According to ChEMBL document CHEMBL2429805, “Studies toward the development of new silicon-containing building blocks for the direct (18)F-labeling of peptides” (J Med Chem, 2013):

Assays:
[1] = system: Bone; assay: Biodistribution in bone of NMRI nude mouse xenografted with human PC3 cells at 8.3 to 15.3 MBq after 60 to 105 mins by PET imaging analysis; type: ADME, organism-based, Bone element, PC-3; conditions: in vivo
[2] = system: Mus musculus; assay: Biodistribution in prostate of NMRI nude mouse xenografted with human PC3 cells at 8.3 to 15.3 MBq after 117 mins by gamma-counting analysis; type: ADME, organism-based, Prostate gland, PC-3; conditions: in vivo, 1.95 h
[3] = system: Mus musculus; assay: Biodistribution in tumor of NMRI nude mouse xenografted with human PC3 cells at 8.3 to 15.3 MBq after 117 mins by gamma-counting analysis; type: ADME, organism-based, Neoplasm, PC-3; conditions: in vivo, 1.95 h
[4] = system: Mus musculus; assay: Biodistribution in abdominal region of NMRI nude mouse xenografted with human PC3 cells at 8.3 to 15.3 MBq after 60 to 105 mins by PET imaging analysis; type: ADME, organism-based, Abdomen, PC-3; conditions: in vivo
[5] = system: Mus musculus; assay: Biodistribution in tumor of NMRI nude mouse xenografted with human PC3 cells at 4.8 to 10.5 MBq after 60 to 105 mins by PET imaging analysis in presence of bombesin; type: ADME, organism-based, Neoplasm, PC-3; conditions: in vivo
[6] = system: Intestine; assay: Biodistribution in intestine of NMRI nude mouse xenografted with human PC3 cells at 8.3 to 15.3 MBq after 117 mins by gamma-counting analysis; type: ADME, organism-based, PC-3; conditions: in vivo, 1.95 h
[7] = system: Lung; assay: Biodistribution in lung of NMRI nude mouse xenografted with human PC3 cells at 8.3 to 15.3 MBq after 117 mins by gamma-counting analysis; type: ADME, organism-based, PC-3; conditions: in vivo, 1.95 h
[8] = system: Blood; assay: Biodistribution in blood of NMRI nude mouse xenografted with human PC3 cells at 4.8 to 10.5 MBq after 117 mins by gamma-counting analysis in presence of bombesin; type: ADME, organism-based, PC-3; conditions: in vivo, 1.95 h
[9] = system: Spleen; assay: Biodistribution in spleen of NMRI nude mouse xenografted with human PC3 cells at 8.3 to 15.3 MBq after 117 mins by gamma-counting analysis; type: ADME, organism-based, PC-3; conditions: in vivo, 1.95 h
[10] = system: Mus musculus; assay: Biodistribution in gallbladder of NMRI nude mouse xenografted with human PC3 cells at 4.8 to 10.5 MBq after 117 mins by gamma-counting analysis in presence of bombesin; type: ADME, organism-based, Gall bladder, PC-3; conditions: in vivo, 1.95 h
[11] = system: Intestine; assay: Biodistribution in intestine of NMRI nude mouse xenografted with human PC3 cells at 4.8 to 10.5 MBq after 117 mins by gamma-counting analysis in presence of bombesin; type: ADME, organism-based, PC-3; conditions: in vivo, 1.95 h
[12] = system: Liver; assay: Biodistribution in liver of NMRI nude mouse xenografted with human PC3 cells at 4.8 to 10.5 MBq after 117 mins by gamma-counting analysis in presence of bombesin; type: ADME, organism-based, PC-3; conditions: in vivo, 1.95 h
[13] = system: Pancreas; assay: Biodistribution in pancreas of NMRI nude mouse xenografted with human PC3 cells at 4.8 to 10.5 MBq after 117 mins by gamma-counting analysis in presence of bombesin; type: ADME, organism-based, PC-3; conditions: in vivo, 1.95 h
[14] = system: Mus musculus; assay: Biodistribution in tumor of NMRI nude mouse xenografted with human PC3 cells at 8.3 to 15.3 MBq after 60 to 105 mins by PET imaging analysis; type: ADME, organism-based, Neoplasm, PC-3; conditions: in vivo
[15] = Stability of the compound in PBS buffer up to 2 hrs; type: physicochemical
[16] = Lipophilicity, log D of the compound in 1-octanol/PBS buffer at pH 7.4 after 15 mins by shake flask method; type: physicochemical
[17] = system: Mus musculus; assay: Biodistribution in urinary bladder of NMRI nude mouse xenografted with human PC3 cells at 8.3 to 15.3 MBq after 60 to 105 mins by PET imaging analysis; type: ADME, organism-based, PC-3; conditions: in vivo
[18] = system: Mus musculus; assay: Biodistribution in tumor of NMRI nude mouse xenografted with human PC3 cells at 4.8 to 10.5 MBq after 117 mins by gamma-counting analysis in presence of bombesin; type: ADME, organism-based, Neoplasm, PC-3; conditions: in vivo, 1.95 h
[19] = system: Mus musculus; assay: Biodistribution in prostate of NMRI nude mouse xenografted with human PC3 cells at 4.8 to 10.5 MBq after 117 mins by gamma-counting analysis in presence of bombesin; type: ADME, organism-based, Prostate gland, PC-3; conditions: in vivo, 1.95 h
[20] = system: Spleen; assay: Biodistribution in spleen of NMRI nude mouse xenografted with human PC3 cells at 4.8 to 10.5 MBq after 117 mins by gamma-counting analysis in presence of bombesin; type: ADME, organism-based, PC-3; conditions: in vivo, 1.95 h
[21] = Ratio of biodistribution in tumor to blood of NMRI nude mouse xenografted with human PC3 cells at 8.3 to 15.3 MBq after 117 mins by gamma-counting analysis; type: ADME, organism-based, PC-3; conditions: tumour, 1.95 h
[22] = system: Mus musculus; assay: Biodistribution in gallbladder of NMRI nude mouse xenografted with human PC3 cells at 8.3 to 15.3 MBq after 117 mins by gamma-counting analysis; type: ADME, organism-based, Gall bladder, PC-3; conditions: in vivo, 1.95 h
[23] = system: Lung; assay: Biodistribution in lung of NMRI nude mouse xenografted with human PC3 cells at 4.8 to 10.5 MBq after 117 mins by gamma-counting analysis in presence of bombesin; type: ADME, organism-based, PC-3; conditions: in vivo, 1.95 h
[24] = system: Blood; assay: Biodistribution in blood of NMRI nude mouse xenografted with human PC3 cells at 8.3 to 15.3 MBq after 117 mins by gamma-counting analysis; type: ADME, organism-based, PC-3; conditions: in vivo, 1.95 h
[25] = system: Kidney; assay: Biodistribution in kidney of NMRI nude mouse xenografted with human PC3 cells at 8.3 to 15.3 MBq after 117 mins by gamma-counting analysis; type: ADME, organism-based, PC-3; conditions: in vivo, 1.95 h
[26] = system: Kidney; assay: Biodistribution in kidney of NMRI nude mouse xenografted with human PC3 cells at 4.8 to 10.5 MBq after 117 mins by gamma-counting analysis in presence of bombesin; type: ADME, organism-based, PC-3; conditions: in vivo, 1.95 h
[27] = Ratio of biodistribution in tumor to blood of NMRI nude mouse xenografted with human PC3 cells at 4.8 to 10.5 MBq after 117 mins by gamma-counting analysis in presence of bombesin; type: ADME, organism-based, PC-3; conditions: tumour, 1.95 h
[28] = system: Pancreas; assay: Biodistribution in pancreas of NMRI nude mouse xenografted with human PC3 cells at 8.3 to 15.3 MBq after 117 mins by gamma-counting analysis; type: ADME, organism-based, PC-3; conditions: in vivo, 1.95 h
[29] = system: Liver; assay: Biodistribution in liver of NMRI nude mouse xenografted with human PC3 cells at 8.3 to 15.3 MBq after 117 mins by gamma-counting analysis; type: ADME, organism-based, PC-3; conditions: in vivo, 1.95 h

## CC(C)C[C@H](NC(=O)C[C@H](O)[C@H](CC(C)C)NC(=O)[C@H](Cc1cnc[nH]1)NC(=O)CN(C)C(=O)[C@@H](NC(=O)[C@H](C)NC(=O)[C@H](Cc1c[nH]c2ccccc12)NC(=O)[C@H](CCC(N)=O)NC(=O)CCCCNC(=O)[C@H](CS(=O)(=O)O)NC(=O)[C@H](CS(=O)(=O)O)NC(=O)Cc1ccc([Si]([18F])(C(C)(C)C)C(C)(C)C)cc1)C(C)C)C(N)=O
[1]
  Drug uptake: Not Active
[2]
  Drug uptake: 0.37 % ID/g
[3]
  Drug uptake: 1.8 % ID/g
[4]
  Drug uptake: Active
[5]
  Drug uptake: Active
[6]
  Drug uptake: 21 % ID/g
[7]
  Drug uptake: 0.65 % ID/g
[8]
  Drug uptake: 1.17 % ID/g
[9]
  Drug uptake: 0.57 % ID/g
[10]
  Drug uptake: 236 % ID/g
[11]
  Drug uptake: 16 % ID/g
[12]
  Drug uptake: 5.6 % ID/g
[13]
  Drug uptake: 3.4 % ID/g
[14]
  Drug uptake: Active
[15]
  Stability: Stable
[16]
  logD at 0.25 h: 0.3
[17]
  Drug uptake: Active
[18]
  Drug uptake: 1.24 % ID/g
[19]
  Drug uptake: 0.7 % ID/g
[20]
  Drug uptake: 0.57 % ID/g
[21]
  Ratio: 2
[22]
  Drug uptake: 194 % ID/g
[23]
  Drug uptake: 1.4 % ID/g
[24]
  Drug uptake: 0.91 % ID/g
[25]
  Drug uptake: 1.7 % ID/g
[26]
  Drug uptake: 2.1 % ID/g
[27]
  Ratio: 1.1
[28]
  Drug uptake: 10 % ID/g
[29]
  Drug uptake: 4.4 % ID/g
